Laboratory results from patent publication US20050282818A1, “Ubiquitin ligase inhibitors” (Rigel Pharmaceuticals, Inc., priority 2004, published 2005).

How the values were obtained:
TRAF6/Uev1A/Ubc13 = target: T1, TRAF6/Uev1A/Ubc13 (Homo sapiens, UniProt Q9Y4K3); assay: TRAF6/Uev1A/Ubc13 plate-based ubiquitin ligase assay; type: biochemical
T1 sequence (Q9Y4K3 1-522): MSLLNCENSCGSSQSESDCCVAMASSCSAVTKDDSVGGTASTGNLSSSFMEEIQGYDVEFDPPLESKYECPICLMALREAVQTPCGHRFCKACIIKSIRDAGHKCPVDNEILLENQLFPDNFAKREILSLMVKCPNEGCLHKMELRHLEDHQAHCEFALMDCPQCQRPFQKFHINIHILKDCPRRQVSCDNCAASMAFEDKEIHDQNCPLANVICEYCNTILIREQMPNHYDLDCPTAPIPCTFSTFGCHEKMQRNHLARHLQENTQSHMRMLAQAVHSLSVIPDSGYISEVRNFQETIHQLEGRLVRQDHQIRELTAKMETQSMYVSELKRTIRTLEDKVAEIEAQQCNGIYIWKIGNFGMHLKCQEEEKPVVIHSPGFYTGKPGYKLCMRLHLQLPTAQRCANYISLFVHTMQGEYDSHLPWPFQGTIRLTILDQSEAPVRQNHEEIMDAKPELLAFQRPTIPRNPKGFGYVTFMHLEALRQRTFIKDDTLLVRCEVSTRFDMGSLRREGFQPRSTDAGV
Outline: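 Ligase activity was read as luminescence from anti-Flag/HRP detection of Flag-ubiquitin bound to casein-blocked Ni-plates alongside His-ubiquitin after a 1 h room-temperature reaction. Buffer: 62.5 mM Tris pH 7.5, 6.25 mM MgCl2, 1.0 mM DTT, 2 μM ATP; E1, Uev1a/Ubc13 and TRAF6 added last to start. IC50s derived across compound concentrations.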

APC11/APC2 = APC11/APC2 (Homo sapiens, UniProt Q9NYG5+Q9UJX6); assay: APC-11/APC-2 ligase assay (APC auto ubiquitination); type: biochemical; conditions: APC assay
Outline: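 His-tagged APC was captured on nickel plates with human E1 (5 ng/well), UbcH5c (20 ng/well), APC (100 ng/well) and Flag-ubiquitin (100 ng/well) in a Tris pH 7.6 reaction buffer containing 2.5 mM ATP, for 1 hour at room temperature. Read-out was anti-Flag/HRP chemiluminescence. IC50 was set against a DMSO control, typically from 6 or 8 concentrations.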

[1] = system: ICAM-1 expression in A549 cells; assay: ICAM assay (IL-1 induced ICAM-1/CD54 expression in A549 cells); type: cell-based, human; conditions: Homo sapiens, A549, ICAM assay
Outline: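 Luminescent immunostaining (anti-CD54, then anti-mouse IgG, 1 h) quantifies ICAM-1 on A549 cells induced 4 h at 37° C by IL-1 (4 μl of 25 ng/ml added). Compound is added 1 h before the cytokine to cells plated overnight at 10,000 per well.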

Chain of APC11/APC2 (Q9NYG5 whole entry): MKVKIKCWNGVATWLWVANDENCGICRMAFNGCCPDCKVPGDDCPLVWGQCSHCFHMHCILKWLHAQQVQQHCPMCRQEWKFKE
Chain of APC11/APC2 (Q9UJX6 whole entry): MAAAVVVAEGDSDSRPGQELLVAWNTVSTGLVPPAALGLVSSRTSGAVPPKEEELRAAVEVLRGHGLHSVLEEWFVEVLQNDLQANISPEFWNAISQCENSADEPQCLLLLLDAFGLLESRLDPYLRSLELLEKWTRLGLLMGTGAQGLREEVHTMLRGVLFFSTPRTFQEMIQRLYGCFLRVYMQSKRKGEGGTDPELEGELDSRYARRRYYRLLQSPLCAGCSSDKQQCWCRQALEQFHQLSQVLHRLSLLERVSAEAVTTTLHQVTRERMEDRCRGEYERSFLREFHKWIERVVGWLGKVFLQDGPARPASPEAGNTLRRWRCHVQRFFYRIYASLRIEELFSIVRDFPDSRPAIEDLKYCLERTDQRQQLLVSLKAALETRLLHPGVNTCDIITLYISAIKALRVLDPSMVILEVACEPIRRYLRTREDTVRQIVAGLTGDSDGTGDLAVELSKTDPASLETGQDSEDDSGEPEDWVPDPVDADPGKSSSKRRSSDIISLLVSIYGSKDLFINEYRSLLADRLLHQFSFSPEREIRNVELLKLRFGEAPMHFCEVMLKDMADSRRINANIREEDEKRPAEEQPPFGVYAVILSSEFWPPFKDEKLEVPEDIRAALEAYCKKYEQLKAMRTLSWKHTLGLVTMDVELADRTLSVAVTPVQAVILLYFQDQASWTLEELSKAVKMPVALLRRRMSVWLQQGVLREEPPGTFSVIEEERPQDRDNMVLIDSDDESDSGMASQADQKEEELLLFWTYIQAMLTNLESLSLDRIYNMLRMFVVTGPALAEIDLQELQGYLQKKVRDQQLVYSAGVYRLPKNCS

Compound | IC50 (TRAF6/Uev1A/Ubc13) [µM] | IC50 (APC11/APC2) [µM] | IC50 [1] [µM]
O=[N+]([O-])c1ccc(-c2ccccc2)c2nonc12 [compound 440, 4-nitro-7-phenyl-2,1,3-benzoxadiazole] | ≥ 20 | 1 to 20 | ≥ 20
CC(=O)c1ccc(-c2ccc([N+](=O)[O-])c3nonc23)cc1 [compound 441, 1-(4-[7-nitro-2,1,3-benzoxadiazol-4-yl]phenyl)ethanone] | 1 to 20 | 1 to 20 | 1 to 20
O=[N+]([O-])c1ccc(-c2ccc(F)cc2)c2nonc12 [compound 442, 4-nitro-7-(4-fluorophenyl)-2,1,3-benzoxadiazole] | 1 to 20 | ≥ 20 | 1 to 20
CC(=O)c1cccc(-c2ccc([N+](=O)[O-])c3nonc23)c1 [compound 443, 1-(3-[7-nitro-2,1,3-benzoxadiazol-4-yl]phenyl)ethanone] | 1 to 20 | 1 to 20 | 1 to 20
O=S(=O)(NCCCc1ccccc1)c1ccc(Cl)c2nonc12 [compound 445, 7-chloro-N-(3-phenylpropyl)-2,1,3-benzoxadiazole-4-sulfonamide] | ≥ 20 | ≥ 20 | ≥ 20
O=S(=O)(NCC1CCCCC1)c1ccc(Cl)c2nonc12 [compound 447, 7-chloro-N-(cyclohexylmethyl)-2,1,3-benzoxadiazole-4-sulfonamide] | ≥ 20 | ≥ 20 | 1 to 20
O=S(=O)(NCC1CC1)c1ccc(Cl)c2nonc12 [compound 449, 7-chloro-N-(cyclopropylmethyl)-2,1,3-benzoxadiazole-4-sulfonamide] | ≥ 20 | ≥ 20 | ≥ 20
Cc1ccc2nsnc2c1S(=O)(=O)Nc1ccccc1F [compound 452, N-(2-fluorophenyl)-5-methyl-2,1,3-benzthiadiazole-4-sulfonamide] | ≥ 20 | ≥ 20 | ≥ 20
CC(=O)Nc1ccc(-c2ccc(C(C)(C)C)cc2)c2nonc12 [compound 453, N-(7-(4-t-butylphenyl)-2,1,3-benzoxadiazol-4-yl)acetamide] | ≥ 20 | 1 to 20 | ≥ 20
CC(C)(C)c1ccc(-c2cc3cc(O)ccc3c3nonc23)cc1 [compound 454] | ≥ 20 | 1 to 20 | ≥ 20

Now from value to compound:

IC50 (TRAF6/Uev1A/Ubc13) [µM] | IC50 (APC11/APC2) [µM] | IC50 [1] [µM] | Compound
≥ 20 | 1 to 20 | 1 to 20 | O=[N+]([O-])c1ccc(-c2ccccc2F)c2nonc12 [compound 437, 7-(2-fluorophenyl)-4-nitro-2,1,3-benzoxadiazole]
≥ 20 | ≥ 20 | ≥ 20 | COCCNS(=O)(=O)c1ccc(Cl)c2nonc12 [compound 438, 7-chloro-N-(2-methoxyethyl)-2,1,3-benzoxadiazole-4-sulfonamide]
≥ 20 | ≥ 20 | 1 to 20 | Cc1ccccc1-c1ccc([N+](=O)[O-])c2nonc12 [compound 439, 4-nitro-7-o-tolyl-2,1,3-benzoxadiazole]
1 to 20 | 1 to 20 | 1 to 20 | O=[N+]([O-])c1cccc(-c2ccc([N+](=O)[O-])c3nonc23)c1 [compound 444, 4-nitro-7-(3-nitrophenyl)-2,1,3-benzoxadiazole]
≥ 20 | ≥ 20 | 1 to 20 | O=S(=O)(NCc1ccccn1)c1ccc(Cl)c2nonc12 [compound 446, 7-chloro-N-(pyridin-2-ylmethyl)-2,1,3-benzoxadiazole-4-sulfonamide]
≥ 20 | ≥ 20 | 1 to 20 | O=S(=O)(NC1CCCCC1)c1ccc(Cl)c2nonc12 [compound 448, 7-chloro-N-(cyclohexyl)-2,1,3-benzoxadiazole-4-sulfonamide]
≥ 20 | ≥ 20 | ≥ 20 | COc1ccc2nonc2c1-c1cc(C)cc(C)c1 [compound 450, 4-(3,5-dimethylphenyl)-5-methoxy-2,1,3-benzoxadiazole]
≥ 20 | ≥ 20 | 1 to 20 | O=[N+]([O-])c1ccc(C2=CCCCC2)c2nonc12 [compound 451, 4-cyclohexenyl-7-nitro-2,1,3-benzoxadiazole]
